Source: US11643421B2, “Process for the preparation of tricyclic PI3K inhibitor compounds and methods for using the same for the treatment of cancer” (priority 2015, dated 2023)

Legend:
GCK = GCK (Homo sapiens, UniProt Q12851); assay: biochemical; conditions: read-out: % inhib
U87 intracranial tumors = assay: Efficacy in U87 intracranial model; assay type: in vivo, mice; conditions: 15 mg/kg PO daily for 2 weeks, micro-CT
Source text: These U87 and GS2 models are PTEN-deficient, with the GS2 cell line presenting a copy number loss at the PTEN locus (Gunther H S, et al.) with no detectable PTEN protein by western blot (Carlson […], Schroeder […]., “Establishment, maintenance and in vitro and in vivo applications of primary human glioblastoma multiforme (GBM) xenograft models for translational biology studies and drug discovery”, Curr Protoc Pharmacol. 2011; Chapter 14: Unit 14 16). The identity of the two cell lines was confirmed by STR profiling (DNA Diagnostics Center) using cells within 5 passages of those utilized for in vivo studies. […] The differences between treatment groups were evaluated using Student's t test in Prism (Prism 5, GraphPad). […] Body temperature was continuously monitored using a rectal probe and was maintained at 37° C. by a heated-air flow system regulated by in-house LabVIEW controller software. […] 12-20 axial 0.5-0.8 mm-thick slices were acquired with a 20×20 mm field of view (FOV), and 128×128 matrix, zero-filled to 256×256 mages. […] Brain sample preparation, micro-CT scanning, and image analysis for ex-vivo micro-CT imaging were performed as described previously (de […], Nishimura M C, Phillips H, Carano […] micro-CT imaging of the postmortem brain”, J. Neurosci. Methods. 2008; 171 (2): 207-213).

EphB3 = EphB3 (Homo sapiens, UniProt P54753); assay: biochemical; conditions: read-out: % inhib
p70S6K = p70S6K (Homo sapiens, UniProt P23443); assay: biochemical; conditions: read-out: % inhib
[1] = system: U87 MG Merchant (MG/M) human glioblastoma xenografts
Experimental: All in vivo studies were conducted in compliance with Genentech's Institutional Animal Care and Use Committee. […] Cells in log-phase growth were harvested and resuspended in HBSS:Matrigel (BD Biosciences; Franklin Lakes, N.J.) (1:1, v:v) for injection into female NCr nude mice (Taconic Farms, Cambridge City, Ind.) aged 20 weeks. Animals received five million cells subcutaneously in the right lateral thorax in 0.1 mL. […] The inhibitor was formulated once weekly in 0.5% methylcellulose and 0.2% Tween-80 at concentrations needed for target doses in a volume of 0.2 mL. All formulations were stored in a refrigerator and brought to room temperature and mixed well by vortex before oral administration by gavage once daily for 23 days. Tumor volumes were calculated from perpendicular length and width caliper measurements using the formula: Tumor Volume (mm^3)=0.5×(Length×Width^2). Changes in body weights are reported as a percentage change from the starting weight.
Log 2(tumor volume) growth traces were fitted to each dose group with restricted cubic splines for the dose and fixed time effects. […] Fitted tumor volumes were plotted in the natural scale in Prism (version 5.0b for Mac) (GraphPad Software; La Jolla, Calif.). Linear mixed-effects analysis was also employed using R to analyze the repeated measurement of body weight changes from the same animals over time.
The mice control group was administered the vehicle in the absence of the drug once at the same dosage schedule. Changes in tumor volumes over time by dose for each compound are depicted in FIG. 3 as cubic spline fits generated via Linear Mixed Effects analysis of log-transformed volumes.

pAKT = assay: PI3K pathway modulation in GS2 tumors, western blot; conditions: 15 mg/kg PO daily 4 weeks
Experimental: Each brain was dissected to separate the tumor from the healthy tissues. […] The GS2 tumors isolated from the brains were processed and the PI3K pathway markers pAkt, pS6 and p4EBP1 were measured as described previously.

CDK5/p25 = CDK5/p25 (Homo sapiens, UniProt Q00535); assay: biochemical; conditions: read-out: % inhib
[2] = In vivo pharmacokinetics IV and PO; set-up: species or system Male Sprague-Dawley rats; conditions: Rat
Experimental: (§1) The hepatocyte stability of compound IIIat was evaluated across preclinical species. Certain in vivo pharmacokinetic parameters were also evaluated. […] Male Sprague-Dawley rats, female CD-1 mice, male cynomolgus monkeys and beagle dogs were dosed intravenously with 1 mg/kg of compound IIIat prepared in 60% PEG400/10% Ethanol. Compound IIIat was administered orally (PO) at the indicated dose in 0.5% methylcellulose with 0.2% Tween 80 (MCT).

Abl = Abl (Homo sapiens, UniProt P00519); assay: biochemical; conditions: read-out: % inhib
InsR = InsR (Homo sapiens, UniProt P06213); assay: biochemical; conditions: read-out: % inhib
EphA2 = EphA2 (Homo sapiens, UniProt P29317); assay: biochemical; conditions: read-out: % inhib
MST1 = MST1 (Homo sapiens, UniProt Q13043); assay: biochemical; conditions: read-out: % inhib
[3] = In vivo pharmacokinetics IV and PO; set-up: species or system female CD-1 mice; conditions: Mouse
Experimental: as §1

CK1_gamma3 = CK1_gamma3 (Homo sapiens, UniProt Q9Y6M4); assay: biochemical; conditions: read-out: % inhib
[4] = In vivo pharmacokinetics IV and PO; set-up: species or system male cynomolgus monkeys; conditions: Cyno
Experimental: as §1

Chain of CK1_gamma3 (Q9Y6M4 whole entry): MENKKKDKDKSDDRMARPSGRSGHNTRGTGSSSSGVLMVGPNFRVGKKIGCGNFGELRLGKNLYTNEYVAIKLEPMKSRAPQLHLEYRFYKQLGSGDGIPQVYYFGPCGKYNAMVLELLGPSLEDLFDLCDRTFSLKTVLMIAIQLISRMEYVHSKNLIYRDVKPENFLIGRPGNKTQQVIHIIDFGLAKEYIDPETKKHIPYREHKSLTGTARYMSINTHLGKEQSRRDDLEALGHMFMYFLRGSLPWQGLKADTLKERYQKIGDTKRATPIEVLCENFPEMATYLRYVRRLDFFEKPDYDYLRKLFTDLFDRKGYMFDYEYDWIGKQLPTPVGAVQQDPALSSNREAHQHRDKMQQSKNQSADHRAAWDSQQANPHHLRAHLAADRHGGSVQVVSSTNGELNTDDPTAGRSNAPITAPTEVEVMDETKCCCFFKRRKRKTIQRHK
Chain of GCK (Q12851 whole entry): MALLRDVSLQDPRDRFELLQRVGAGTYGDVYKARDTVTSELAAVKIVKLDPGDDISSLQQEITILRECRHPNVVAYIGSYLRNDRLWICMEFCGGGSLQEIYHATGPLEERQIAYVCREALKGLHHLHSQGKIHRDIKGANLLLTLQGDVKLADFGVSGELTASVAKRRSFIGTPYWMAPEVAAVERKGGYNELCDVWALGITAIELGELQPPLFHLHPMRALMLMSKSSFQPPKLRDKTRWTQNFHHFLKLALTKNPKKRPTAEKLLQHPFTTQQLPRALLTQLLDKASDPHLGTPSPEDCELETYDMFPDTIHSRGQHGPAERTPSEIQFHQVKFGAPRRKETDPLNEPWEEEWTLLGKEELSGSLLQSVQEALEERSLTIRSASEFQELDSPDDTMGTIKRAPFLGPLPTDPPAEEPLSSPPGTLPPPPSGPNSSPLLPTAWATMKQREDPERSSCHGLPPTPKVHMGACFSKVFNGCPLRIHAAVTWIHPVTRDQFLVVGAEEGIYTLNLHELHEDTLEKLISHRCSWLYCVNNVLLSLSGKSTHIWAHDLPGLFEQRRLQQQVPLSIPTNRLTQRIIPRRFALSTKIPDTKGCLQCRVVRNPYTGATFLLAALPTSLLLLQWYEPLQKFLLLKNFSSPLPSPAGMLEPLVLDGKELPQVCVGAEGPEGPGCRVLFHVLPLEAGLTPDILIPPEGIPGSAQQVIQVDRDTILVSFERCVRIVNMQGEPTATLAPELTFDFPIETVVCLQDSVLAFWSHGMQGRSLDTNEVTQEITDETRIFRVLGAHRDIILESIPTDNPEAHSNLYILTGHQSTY
Chain of EphB3 (P54753 34-998): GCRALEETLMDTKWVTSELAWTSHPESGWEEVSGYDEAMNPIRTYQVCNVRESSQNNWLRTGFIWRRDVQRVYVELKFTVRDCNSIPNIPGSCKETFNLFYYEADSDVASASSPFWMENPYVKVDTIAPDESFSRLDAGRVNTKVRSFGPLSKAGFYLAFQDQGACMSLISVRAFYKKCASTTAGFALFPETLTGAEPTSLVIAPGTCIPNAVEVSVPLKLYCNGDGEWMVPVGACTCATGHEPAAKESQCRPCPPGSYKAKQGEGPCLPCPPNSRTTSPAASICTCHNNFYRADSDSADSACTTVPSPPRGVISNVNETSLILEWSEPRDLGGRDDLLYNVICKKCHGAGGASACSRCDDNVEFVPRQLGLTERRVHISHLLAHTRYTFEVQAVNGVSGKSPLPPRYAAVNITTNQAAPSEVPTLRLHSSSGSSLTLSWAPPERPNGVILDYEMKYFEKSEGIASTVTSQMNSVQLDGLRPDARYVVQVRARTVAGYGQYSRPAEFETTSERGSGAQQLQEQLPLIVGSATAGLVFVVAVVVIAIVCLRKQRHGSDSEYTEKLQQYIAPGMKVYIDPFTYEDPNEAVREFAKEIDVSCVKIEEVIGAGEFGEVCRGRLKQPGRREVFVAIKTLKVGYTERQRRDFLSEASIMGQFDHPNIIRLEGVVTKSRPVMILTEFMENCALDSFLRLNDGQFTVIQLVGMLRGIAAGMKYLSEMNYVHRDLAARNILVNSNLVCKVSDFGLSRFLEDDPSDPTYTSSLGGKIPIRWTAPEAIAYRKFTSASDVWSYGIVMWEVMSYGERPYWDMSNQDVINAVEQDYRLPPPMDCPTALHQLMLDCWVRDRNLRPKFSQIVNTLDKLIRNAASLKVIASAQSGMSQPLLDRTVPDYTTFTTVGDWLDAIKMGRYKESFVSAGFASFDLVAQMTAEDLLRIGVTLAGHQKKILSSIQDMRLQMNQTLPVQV
Chain of p70S6K (P23443 whole entry): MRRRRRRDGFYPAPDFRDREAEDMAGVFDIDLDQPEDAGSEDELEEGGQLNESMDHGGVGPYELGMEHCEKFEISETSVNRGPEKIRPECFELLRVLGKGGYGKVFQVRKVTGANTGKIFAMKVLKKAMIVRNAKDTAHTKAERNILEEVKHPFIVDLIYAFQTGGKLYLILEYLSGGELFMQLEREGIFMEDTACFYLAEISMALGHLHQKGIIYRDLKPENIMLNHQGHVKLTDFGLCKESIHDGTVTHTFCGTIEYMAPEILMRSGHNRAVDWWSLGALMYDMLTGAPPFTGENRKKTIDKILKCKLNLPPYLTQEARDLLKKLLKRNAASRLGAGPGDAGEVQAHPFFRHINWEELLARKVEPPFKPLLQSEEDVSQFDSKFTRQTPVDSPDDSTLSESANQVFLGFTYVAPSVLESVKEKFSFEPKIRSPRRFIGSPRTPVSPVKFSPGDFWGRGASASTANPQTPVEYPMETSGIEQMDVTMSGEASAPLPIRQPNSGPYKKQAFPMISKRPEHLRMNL
Chain of CDK5/p25 (Q00535 whole entry, species assumed): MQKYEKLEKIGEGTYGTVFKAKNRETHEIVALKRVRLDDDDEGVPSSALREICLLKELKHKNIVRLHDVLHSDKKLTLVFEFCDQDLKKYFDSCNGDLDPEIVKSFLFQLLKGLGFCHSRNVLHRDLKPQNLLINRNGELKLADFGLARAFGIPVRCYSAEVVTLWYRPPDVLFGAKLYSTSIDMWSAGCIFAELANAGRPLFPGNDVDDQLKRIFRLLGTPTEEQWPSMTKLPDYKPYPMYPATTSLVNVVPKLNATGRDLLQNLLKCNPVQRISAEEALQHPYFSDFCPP
Chain of CDK5/p25 (Q15078 99-307 partner limits assumed, species assumed): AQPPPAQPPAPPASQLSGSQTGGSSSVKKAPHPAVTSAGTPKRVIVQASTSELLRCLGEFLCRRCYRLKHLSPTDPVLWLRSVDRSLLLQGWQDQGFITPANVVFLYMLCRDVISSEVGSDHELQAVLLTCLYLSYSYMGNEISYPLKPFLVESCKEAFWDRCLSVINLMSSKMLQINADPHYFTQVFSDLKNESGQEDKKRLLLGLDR
Chain of MST1 (Q13043 whole entry): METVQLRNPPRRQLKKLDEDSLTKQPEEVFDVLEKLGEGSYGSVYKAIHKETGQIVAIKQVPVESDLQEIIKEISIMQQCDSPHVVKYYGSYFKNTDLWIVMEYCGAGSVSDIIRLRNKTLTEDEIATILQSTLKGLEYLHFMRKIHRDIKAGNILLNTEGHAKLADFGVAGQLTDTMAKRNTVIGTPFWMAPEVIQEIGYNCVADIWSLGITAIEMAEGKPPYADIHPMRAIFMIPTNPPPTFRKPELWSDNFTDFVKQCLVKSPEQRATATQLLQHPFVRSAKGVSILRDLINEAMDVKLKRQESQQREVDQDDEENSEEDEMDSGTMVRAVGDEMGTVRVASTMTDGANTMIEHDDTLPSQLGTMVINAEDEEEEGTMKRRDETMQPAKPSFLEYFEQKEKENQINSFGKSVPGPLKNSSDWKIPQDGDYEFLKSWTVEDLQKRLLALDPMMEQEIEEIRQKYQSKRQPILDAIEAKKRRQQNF
Chain of EphA2 (P29317 24-976, species assumed): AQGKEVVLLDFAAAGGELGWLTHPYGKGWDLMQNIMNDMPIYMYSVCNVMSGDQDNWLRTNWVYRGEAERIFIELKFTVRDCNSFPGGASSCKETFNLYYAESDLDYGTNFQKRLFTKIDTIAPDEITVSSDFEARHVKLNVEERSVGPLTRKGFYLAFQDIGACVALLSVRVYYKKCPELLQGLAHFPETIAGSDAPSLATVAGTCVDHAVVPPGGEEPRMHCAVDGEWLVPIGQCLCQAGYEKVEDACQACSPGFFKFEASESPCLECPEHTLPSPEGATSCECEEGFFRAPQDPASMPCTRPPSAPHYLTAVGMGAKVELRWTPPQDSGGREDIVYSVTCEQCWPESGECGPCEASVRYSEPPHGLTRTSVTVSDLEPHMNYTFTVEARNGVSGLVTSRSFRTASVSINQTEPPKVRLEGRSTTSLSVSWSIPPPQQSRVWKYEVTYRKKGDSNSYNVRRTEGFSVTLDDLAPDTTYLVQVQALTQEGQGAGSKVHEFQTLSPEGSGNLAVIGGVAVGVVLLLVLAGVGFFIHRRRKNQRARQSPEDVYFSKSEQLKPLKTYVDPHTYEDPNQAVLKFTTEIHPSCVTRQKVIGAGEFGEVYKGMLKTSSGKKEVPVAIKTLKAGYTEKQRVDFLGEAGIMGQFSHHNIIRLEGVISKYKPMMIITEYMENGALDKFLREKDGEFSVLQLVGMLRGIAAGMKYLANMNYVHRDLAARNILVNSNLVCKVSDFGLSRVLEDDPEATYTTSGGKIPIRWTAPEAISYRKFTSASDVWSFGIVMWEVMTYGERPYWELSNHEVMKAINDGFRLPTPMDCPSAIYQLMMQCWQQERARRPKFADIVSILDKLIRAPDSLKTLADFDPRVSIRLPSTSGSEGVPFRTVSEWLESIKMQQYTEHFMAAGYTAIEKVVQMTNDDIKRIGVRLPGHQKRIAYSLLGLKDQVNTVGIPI

In the case of `CC1(C)OCCn2c1nc1c(N3CCOCC3)nc(-c3cnc(N)nc3)nc12` [GDC-0084, 5-(6,6-dimethyl-4-morpholino-8,9-dihydro-6H-[1,4]oxazino[3,4-e]purin-2-yl)pyrimidin-2-amine], the inhibition at 1 µM (GCK) is reported as 0.9%, the “U87 tumor volume reduction versus vehicle control” value (U87 intracranial tumors) is reported as “approximately 70%” and the inhibition at 1 µM (EphB3) is reported as -0.1%. For the same compound, the inhibition at 1 µM (p70S6K) was 6%, the “tumor response at highest dose” value ([1]; 17.9 mg/kg dose level) was “tumor regressions” and the tumor growth inhibition ([1]; 0.45-17.9 mg/kg oral, 23 days) was “significant and dose-dependent tumor growth inhibition”. The tolerability ([1]; mouse, in vivo) was “well tolerated”, the “dose level at which tumor growth inhibition was first observed” value ([1]; oral dose escalation) was 2.2 mg/kg and the “reduction of pAkt levels in GS2 tumors” value (pAKT; 2 hours after final administration) was 90%. The “reduction of pAkt levels in GS2 tumors” value (pAKT; 8 hours after final administration) was 70%, the inhibition at 1 µM (CDK5/p25) was 0.3% and the “In vivo Cl” value ([2]; IV 1 mg/kg) was 28 mL/min/kg. For the same compound, the Cmax ([2]; PO 5 mg/kg in MCT) was 1.1 μm, the F % ([2]; PO 5 mg/kg in MCT) was 77% and the inhibition at 1 µM (Abl) was 2%. For the same compound, the inhibition at 1 µM (InsR) was 6%, the inhibition at 1 µM (EphA2) was -0.7% and the inhibition at 1 µM (MST1) was 5%. The “In vivo Cl” value ([3]; IV 1 mg/kg) was 17 mL/min/kg, the AUC ([3]; PO 25 mg/kg in MCT) was 47 μm·h and the Cmax ([3]; PO 25 mg/kg in MCT) was 4.6 μm. The F % ([3]; PO 25 mg/kg in MCT) was 75%, the inhibition at 1 µM (CK1_gamma3) was -0.2% and the AUC ([4]; PO 2 mg/kg in MCT) was 0.11 μm·h. It also gave a Cmax ([4]; PO 2 mg/kg in MCT) of 0.03 μm, a clearance ([4]; male, cynomolgus monkey, plasma, IV 1 mg/kg, read-out: In vivo Cl) of 46 mL/min/kg and a Vd ([4]; male, cynomolgus monkey, plasma, IV 1 mg/kg, read-out: Vss) of 2.9 L/kg. For the same compound, the bioavailability ([4]; male, cynomolgus monkey, plasma, PO 2 mg/kg in MCT) was 6%.
